Assay results as given in US20140235558A1, “PHARMACEUTICAL COMPOSITION HAVING ACTIVITY OF ANTICANCER” (Hanall Biopharma Co., Ltd., priority 2010, published 2014).
Structures can show the parent of a compound that is named as a salt. Where two headings read alike, the source gives them in different places.

How the values were obtained:
[1] = test system: human breast cancer cell line MCF7; assay: MTT cell growth inhibition, MCF7 cells; format: cell-based
Method: (§1) Briefly, MCF7 and NCI-N87 cells were grown at a density of 5,000 cells/well in DMEM and RPMI1640 media (both purchased from Gibco Life Technologies, USA), respectively, both supplemented with 10% (v/v) bovine calf serum (BCS), on 96-well plates for 16 h (Temp.: 37° C., pH: 7.0˜7.4). Then, the MCF7 cells were incubated for 48 h with 2.5 mM 2-deoxy-D-glucose and 100 μM phenformin HCl, solely or in combination while NCI-N87 cells were incubated for 48 h with 2.5 mM 2-deoxy-D-glucose and 700 μM phenformin HCl, solely or in combination (Temp.: 37° C., pH: 7.0˜7.4). To quantitate viable cells after incubation with 2-deoxy-D-glucose and phenformin HCl, the cell cultures were further incubated for 3 h in the presence of MTT. The formazan crystals thus formed were dissolved with DMSO (dimethyl sulfoxide) before reading absorbance at 560 nm.
(§2) After the 48 h incubation, viable cells were counted on the well plates treated with 2-deoxy-D-glucose and phenformin, and expressed as % cell growth inhibition relative to the count of the viable cells on the well plates treated with neither 2-deoxy-D-glucose nor phenformin.
(§3) When the human breast cancer cell line MCF7 and the human stomach cancer cell line NCI-N87 were treated with various concentrations of phenformin and 2-deoxy-D-glucose, % inhibition of cancer cell growth was measured. The same procedure as in Experimental Example 2 was repeated, with the exception that 2-deoxy-D-glucose and phenformin HCl were used at different concentrations.
(§4) The same procedure as in Experimental Example 3 was repeated in the breast cancer cell line MCF7 and the colorectal cancer cell line HCT116 (both purchased from the Korean Cell Line Bank), with the exception that the materials and concentrations indicated in Tables 5 and 6 were employed.

[2] = test system: colorectal cancer cell line HCT116; assay: MTT cell growth inhibition, HCT116 cells; format: cell-based, human
Method: as §1, §2, §4

[3] = test system: AMPKα (5′-AMP-activated protein kinase alpha); assay: AMPK activation: phosphorylation of AMPKα at Thr172 in MCF7 cells (AMPKα immunoassay kit); format: cell-based, human; details: MCF7, 24 h
Method: AMPK activation occurs when the generation of ATP, an energy source necessary for the survival of cancer cells, is inhibited. […] In this regard, AMPKα (5'-AMP-activated protein kinase alpha) activation was measured in the MCF7 human breast cancer cells using the AMPKα immunoassay kit (Invitrogen, catalog No. KHO0651). […] Then, the cells were lysed using the AMPKα immunoassay kit (Invitrogen, catalog No. KHO0651) according to the manufacturer's instruction.

[4] = test system: human stomach cancer cell line NCI-N87; assay: MTT cell growth inhibition, NCI-N87 cells; format: cell-based
Method: as §1, §2, §3

`CN(C)C(=N)N=C(N)N` [Metformin HCl, metformin hydrochloride] was tested, and the inhibition at 625 µM ([1]; Homo sapiens, MCF7, metformin HCl 0.625 mM alone, read-out: Tumor Growth Inhibition (%)) was 9%, the inhibition at 1250 µM ([1]; Homo sapiens, MCF7, metformin HCl 1.25 mM alone, read-out: Tumor Growth Inhibition (%)) was 22% and the inhibition at 2500 µM ([1]; Homo sapiens, MCF7, metformin HCl 2.5 mM alone, read-out: Tumor Growth Inhibition (%)) was 24%. The inhibition at 5000 µM ([1]; Homo sapiens, MCF7, metformin HCl 5.0 mM alone, read-out: Tumor Growth Inhibition (%)) was 30%, the inhibition at 10000 µM ([1]; Homo sapiens, MCF7, metformin HCl 10.0 mM alone, read-out: Tumor Growth Inhibition (%)) was 38% and the inhibition at 20000 µM ([1]; Homo sapiens, MCF7, metformin HCl 20.0 mM alone, read-out: Tumor Growth Inhibition (%)) was 61%. The inhibition at 625 µM ([2]; Homo sapiens, HCT-116, metformin HCl 0.625 mM alone, read-out: Tumor Growth Inhibition (%)) was 7%, the inhibition at 1250 µM ([2]; Homo sapiens, HCT-116, metformin HCl 1.25 mM alone, read-out: Tumor Growth Inhibition (%)) was 11% and the inhibition at 2500 µM ([2]; Homo sapiens, HCT-116, metformin HCl 2.5 mM alone, read-out: Tumor Growth Inhibition (%)) was 40%. For the same compound, the inhibition at 5000 µM ([2]; Homo sapiens, HCT-116, metformin HCl 5.0 mM alone, read-out: Tumor Growth Inhibition (%)) was 64%, the inhibition at 10000 µM ([2]; Homo sapiens, HCT-116, metformin HCl 10.0 mM alone, read-out: Tumor Growth Inhibition (%)) was 63% and the inhibition at 20000 µM ([2]; Homo sapiens, HCT-116, metformin HCl 20.0 mM alone, read-out: Tumor Growth Inhibition (%)) was 66%.

With `OCC1O[C@H](O)C[C@@H](O)[C@@H]1O` (mixture of isomers) [2-Deoxy-D-glucose, 2-deoxy-D-glucose] the “Normalized to Control (P-AMPK)” value ([3]; 2-deoxy-D-glucose 2.5 mM) was 1.46, the “P-AMPK (Unit/ml)” value ([3]; 2-deoxy-D-glucose 2.5 mM) was 7.62 ± 1.2 Unit/ml and the inhibition at 2500 µM ([1]; Homo sapiens, MCF7, 48 h, read-out: Cell Growth Inhibition (%)) was 44.2%. The “Tumor Growth Inhibition (%)” value ([1]; MCF7, 2-DG 100 μM alone) was 0%, the “Tumor Growth Inhibition (%)” value ([1]; MCF7, 2-DG 500 μM alone) was 5% and the “Tumor Growth Inhibition (%)” value ([1]; MCF7, 2-DG 2 mM alone) was 31%. For the same compound, the “Tumor Growth Inhibition (%)” value ([1]; MCF7, 2-DG 2.5 mM alone (Table 5)) was 58%, the “Tumor Growth Inhibition (%)” value ([1]; MCF7, 2-DG 5.0 mM alone) was 76% and the “Tumor Growth Inhibition (%)” value ([1]; MCF7, 2-DG 20.0 mM alone) was 91%. The “inhibitory effect on breast cancer cells relative to stomach cancer cells” value ([1]; MCF7 vs NCI-N87, 2.5 mM) was “about 3 times”, the inhibition at 2500 µM ([4]; Homo sapiens, NCI-N87, 48 h, 2-deoxy-D-glucose 2.5 mM) was 15.1% and the “Tumor Growth Inhibition (%)” value ([4]; NCI-N87, 2-DG 100 μM alone) was 3%. The “Tumor Growth Inhibition (%)” value ([4]; NCI-N87, 2-DG 500 μM alone) was 6%, the “Tumor Growth Inhibition (%)” value ([4]; NCI-N87, 2-DG 2 mM alone) was 32% and the “Tumor Growth Inhibition (%)” value ([2]; 2-DG 2.5 mM alone) was 62%. The “Tumor Growth Inhibition (%)” value ([2]; 2-DG 5.0 mM alone) was 79% and the “Tumor Growth Inhibition (%)” value ([2]; 2-DG 20.0 mM alone) was 93%.

With `N=C(N)NC(=N)NCCc1ccccc1` [Phenformin HCl, phenformin hydrochloride] the “Normalized to Control (P-AMPK)” value ([3]; phenformin HCl 50 nM [sic]) was 5.98, the “P-AMPK (Unit/ml)” value ([3]; phenformin HCl 50 nM [sic]) was 12.14 ± 2.0 Unit/ml and the inhibition at 100 µM ([1]; Homo sapiens, MCF7, 48 h, phenformin HCl 100 μM, read-out: Cell Growth Inhibition (%)) was 14.3%. It also gave an inhibition at 10 µM ([1]; Homo sapiens, MCF7, phenformin 10 μM alone, read-out: Tumor Growth Inhibition (%)) of 9%, an inhibition at 50 µM ([1]; Homo sapiens, MCF7, phenformin 50 μM alone, read-out: Tumor Growth Inhibition (%)) of 12% and an inhibition at 100 µM ([1]; Homo sapiens, MCF7, phenformin 100 μM alone, read-out: Tumor Growth Inhibition (%)) of 14%. The inhibition at 200 µM ([1]; Homo sapiens, MCF7, phenformin 200 μM alone, read-out: Tumor Growth Inhibition (%)) was 18%, the inhibition at 400 µM ([1]; Homo sapiens, MCF7, phenformin 400 μM alone, read-out: Tumor Growth Inhibition (%)) was 31% and the inhibition at 1000 µM ([1]; Homo sapiens, MCF7, phenformin 1 mM alone, read-out: Tumor Growth Inhibition (%)) was 58%. It also gave an inhibition at 700 µM ([4]; Homo sapiens, NCI-N87, 48 h, phenformin HCl 700 μM) of 52.5%, an inhibition at 10 µM ([4]; Homo sapiens, NCI-N87, phenformin 10 μM alone, read-out: Tumor Growth Inhibition (%)) of 22% and an inhibition at 50 µM ([4]; Homo sapiens, NCI-N87, phenformin 50 μM alone, read-out: Tumor Growth Inhibition (%)) of 24%. It also gave an inhibition at 100 µM ([4]; Homo sapiens, NCI-N87, phenformin 100 μM alone, read-out: Tumor Growth Inhibition (%)) of 24%, an inhibition at 200 µM ([4]; Homo sapiens, NCI-N87, phenformin 200 μM alone, read-out: Tumor Growth Inhibition (%)) of 24% and an inhibition at 400 µM ([4]; Homo sapiens, NCI-N87, phenformin 400 μM alone, read-out: Tumor Growth Inhibition (%)) of 26%. The inhibition at 1000 µM ([4]; Homo sapiens, NCI-N87, phenformin 1 mM alone, read-out: Tumor Growth Inhibition (%)) was 39% and the “inhibitory effect on stomach cancer cells relative to breast cancer cells” value ([4]; NCI-N87 (700 μM) vs MCF7 (100 μM), 7-fold increased concentration) was “approximately 4 fold”.
